Literature values in patent US20140256822A1, “TRANSMUCOSAL DRUG DELIVERY SYSTEM” (priority 2013, published 2014).

Conditions: at a pH of 6.8

SMILES: CN1CCCC1c1cccnc1 (stereo not shown) [nicotine]
- nicotine in the free base form: about 10%
